Data set [1] in a line: Lyophilisation Solubility Assay (LYSA). Type of data set: physicochemical. The settings on record: aqueous buffer, thermodynamic from solid, 0.05 M phosphate buffer pH 6.5. The protocol:
The procedure of this automatic high throughput assay can be separated into two steps. First, DMSO stock solutions of test compounds are diluted in order to prepare four point calibration curves. The peak area at an optimal wavelength for each test compound is determined automatically by Ultra Fast Liquid Chromatography. The extraction of peak areas and retention times from the raw data is performed automatically. Using four concentrations and the related peak areas, slope and intercept of the calibration line is calculated. The correlation coefficient of the obtained regression line should be greater than 0.99. In the second phase, the sample solutions are prepared in duplicate from the DMSO stock solutions. The DMSO was removed using an evaporator. After evaporation of the DMSO, the solid drugs were solved in 0.05 M phosphate buffer (pH 6.5), stirred for one hour and afterwards shaken for two hours. After standing overnight (about 20 hours), the solutions are filtered using a microtiter filter plate. The filtrate and its 1/10 dilutions are then analyzed automatically by High Performance Liquid Chromatography (HPLC). The peak areas and retention times of the samples were extracted at the same wavelength used for the calibration.
The solubility is calculated using the following equation: S=(A−b)/a(×10 for the sample diluted 1/10)
Where S is the solubility in μg/mL; A is the peak area of the sample; a is the slope and b is the intercept of the calibration curve.

The next data set has as its target T1, human mGlu5a receptor (Homo sapiens, UniProt P41594).
T1 construct: expressed in transfected cells; host or cells: HEK-293 (monoclonal, stably transfected)
The data set can be described thus: Intracellular Ca2+ mobilization assay (mGlu5 PAM). In kind it is cell-based. Particulars: HEK-293 cells expressing human mGlu5a; L-glutamate at EC20. As for the experimental part:
A monoclonal HEK-293 cell line stably transfected with a cDNA encoding for the human mGlu5a receptor was generated; for the work with mGlu5 Positive Allosteric Modulators (PAMs), a cell line with low receptor expression levels and low constitutive receptor activity was selected to allow the differentiation of agonistic versus PAM activity. Cells were cultured according to standard protocols (Freshney, 2000) in Dulbecco's Modified Eagle Medium with high glucose supplemented with 1 mM glutamine, 10% (vol/vol) heat-inactivated bovine calf serum, Penicillin/Streptomycin, 50 μg/ml hygromycin and 15 μg/ml blasticidin (all cell culture reagents and antibiotics from Invitrogen, Basel, Switzerland).
About 24 hrs before an experiment, 5×10^4 cells/well were seeded in poly-D-lysine coated, black/clear-bottomed 96-well plates. The cells were loaded with 2.5 μM Fluo-4AM in loading buffer (1×HBSS, 20 mM HEPES) for 1 hr at 37° C. and washed five times with loading buffer. The cells were transferred into a Functional Drug Screening System 7000 (Hamamatsu, Paris, France), and 11 half logarithmic serial dilutions of test compound at 37° C. were added and the cells were incubated for 10-30 min. with on-line recording of fluorescence. Following this pre-incubation step, the agonist L-glutamate was added to the cells at a concentration corresponding to EC20 (typically around 80 μM) with on-line recording of fluorescence; in order to account for day-to-day variations in the responsiveness of cells, the EC20 of glutamate was determined immediately ahead of each experiment by recording of a full dose-response curve of glutamate.
Responses were measured as peak increase in fluorescence minus basal (i.e. fluorescence without addition of L-glutamate), normalized to the maximal stimulatory effect obtained with saturating concentrations of L-glutamate. Graphs were plotted with the % maximal stimulatory using XLfit, a curve fitting program that iteratively plots the data using Levenburg Marquardt algorithm. The single site competition analysis equation used was y=A+((B−A)/(1+((x/C)D))), where y is the % maximal stimulatory effect, A is the minimum y, B is the maximum y, C is the EC50, x is the log 10 of the concentration of the competing compound and D is the slope of the curve (the Hill Coefficient). From these curves the EC50 (concentration at which half maximal stimulation was achieved), the Hill coefficient as well as the maximal response in % of the maximal stimulatory effect obtained with saturating concentrations of L-glutamate were calculated.
A depression of the signal observed after addition of the EC20 concentration of L-glutamate was indicative of an inhibitory activity of the test compound.

A short description of data set [2]: Spontaneous Glutathione (GSH) Addition Assay. On the set-up: key: Samples for which the mass of a covalent adduct was clearly detected (M+307) are indicated as FLAG (positive); Compounds for which no adduct was detected are designated NO FLAG (negative). Particulars: 10 μM test substance, 5 mM GSH, pH 7.4 phosphate buffer, 24 hours, room temperature; adduct by MS. As for the experimental part:
10 μM of test substance dissolved in pH 7.4 phosphate buffer was incubated with 5 mM GSH (glutathione) for 24 hours at room temperature. The samples were then analyzed using a mass spectrometer to determine whether adducts between glutathione and the drug had been formed. Samples for which the mass of a covalent adduct was clearly detected (M+307) are indicated as FLAG (positive). Compounds for which no adduct was detected are designated NO FLAG (negative).

Data set [3] in a line: Solubility by 24 h equilibration in phosphate buffer, manual conventional HPLC (reference compound 106). The settings on record: aqueous buffer, thermodynamic from solid, equilibrated 24 h in 0.05 M phosphate buffer pH 6.5. In kind it is physicochemical. As for the experimental part:
In the case of reference compound 106, the compound was equilibrated for 24 h in 0.05 M phosphate buffer (pH 6.5) using a procedure identical to that performed with the LYSA assay. The amount of solute present was then directly determined using manual conventional HPLC analytics.

In brackets after ≈: the same amount, converted by molar mass. Some results are limits rather than exact numbers.

T1 sequence (P41594 21-1180 isoform P41594-2 limits assumed): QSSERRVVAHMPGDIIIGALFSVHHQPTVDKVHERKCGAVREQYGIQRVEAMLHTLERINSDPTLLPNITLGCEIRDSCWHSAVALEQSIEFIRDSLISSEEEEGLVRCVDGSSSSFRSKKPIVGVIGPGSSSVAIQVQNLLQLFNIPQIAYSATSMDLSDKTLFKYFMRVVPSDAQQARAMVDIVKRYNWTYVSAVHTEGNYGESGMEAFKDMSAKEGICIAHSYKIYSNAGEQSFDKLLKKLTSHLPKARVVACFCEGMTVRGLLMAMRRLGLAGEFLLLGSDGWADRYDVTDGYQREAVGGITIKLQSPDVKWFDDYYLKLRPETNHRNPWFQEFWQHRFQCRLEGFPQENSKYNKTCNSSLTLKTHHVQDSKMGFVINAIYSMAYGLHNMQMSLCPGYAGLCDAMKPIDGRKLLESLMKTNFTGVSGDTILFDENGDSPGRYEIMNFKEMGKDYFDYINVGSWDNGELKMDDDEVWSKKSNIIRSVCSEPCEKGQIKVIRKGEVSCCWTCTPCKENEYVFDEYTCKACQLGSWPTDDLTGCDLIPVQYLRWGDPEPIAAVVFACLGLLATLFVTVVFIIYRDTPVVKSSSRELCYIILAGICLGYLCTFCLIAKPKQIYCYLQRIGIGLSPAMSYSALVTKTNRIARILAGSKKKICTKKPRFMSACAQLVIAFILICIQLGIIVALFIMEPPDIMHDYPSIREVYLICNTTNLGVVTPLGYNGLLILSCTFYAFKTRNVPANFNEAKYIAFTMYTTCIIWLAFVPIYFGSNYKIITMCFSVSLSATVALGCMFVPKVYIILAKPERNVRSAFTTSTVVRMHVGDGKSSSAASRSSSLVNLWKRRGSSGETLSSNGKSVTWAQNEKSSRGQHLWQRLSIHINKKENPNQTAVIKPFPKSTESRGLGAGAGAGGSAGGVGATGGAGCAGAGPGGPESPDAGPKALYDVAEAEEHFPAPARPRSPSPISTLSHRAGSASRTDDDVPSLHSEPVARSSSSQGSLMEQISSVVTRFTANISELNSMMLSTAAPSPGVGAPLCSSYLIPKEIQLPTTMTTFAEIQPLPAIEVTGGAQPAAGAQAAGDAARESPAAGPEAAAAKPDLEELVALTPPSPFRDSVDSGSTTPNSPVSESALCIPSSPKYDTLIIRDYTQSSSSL

For the compound `CN1C(=O)N(c2ccc(C#Cc3cccc(F)c3)nn2)[C@@H]2CCC[C@@H]21` (racemic) [Ref. 1 Ex. 174, reference compound], in data set [1], the solubility is under 1 µg/mL. At human mGlu5a receptor, this compound had an EC50 of 11.9 nM. For the same compound, the GSH assay entry in data set [2] is recorded as “FLAG”.

The compound `CCN1C(=O)N(c2ncc(C#Cc3ccccc3)cn2)[C@@H]2CCC[C@@H]21` [Example 1, (−)-(3aR,6aS)-1-Ethyl-3-(5-phenylethynyl-pyrimidin-2-yl)-hexahydro-cyclopentaimidazol-2-one] registered a solubility in data set [1] of 8 µg/mL (≈ 24.1 µM). For the same compound, the EC50 at human mGlu5a receptor amounted to 9.1 nM. Further, the GSH assay result in data set [2] is reported as “NO FLAG”.

Turning to `CCN1C(=O)N(c2ncc(C#Cc3cccc(F)c3)cn2)[C@@H]2CCC[C@@H]21` [Example 2], the solubility in data set [1] stood at 7 µg/mL (≈ 20 µM). The compound further showed an EC50 on human mGlu5a receptor of 10.6 nM. Moreover, the GSH assay entry in data set [2] is “NO FLAG”.

Take `CCN1C(=O)N(c2ncc(C#Cc3ccc(F)cc3)cn2)[C@@H]2CCC[C@@H]21` [Example 3]: the solubility in data set [1] came to 4 µg/mL (≈ 11.4 µM). Besides, the EC50 on human mGlu5a receptor is 11.5 nM. Further, in data set [2], the GSH assay entry is given as “NO FLAG”.

Take `CCN1C(=O)N(c2ncc(C#Cc3cc(F)ccc3F)cn2)[C@@H]2CCC[C@@H]21` [Example 4]: the solubility in data set [1] was determined as 16 µg/mL (≈ 43.4 µM). The compound further gave an EC50 at human mGlu5a receptor of 10 nM. For the same compound, the GSH assay entry in data set [2] was “NO FLAG”.

Take `COCCN1C(=O)N(c2ncc(C#Cc3ccccc3)cn2)[C@@H]2CCC[C@@H]21` [Example 5, (−)-(3aR,6aS)-1-(2-Methoxy-ethyl)-3-(5-phenylethynyl-pyrimidin-2-yl)-hexahydro-cyclopentaimidazol-2-one]: the solubility in data set [1] came to 171 µg/mL (≈ 472 µM). The same compound had an EC50 at human mGlu5a receptor of 12.5 nM. Also, the GSH assay entry in data set [2] was “NO FLAG”.

For the compound `COCCN1C(=O)N(c2ncc(C#Cc3cccc(F)c3)cn2)[C@@H]2CCC[C@@H]21` [Example 6], the solubility in data set [1] was found to be 114 µg/mL (≈ 300 µM). The same compound had an EC50 at human mGlu5a receptor of 24.5 nM. Further, the GSH assay entry in data set [2] is recorded as “NO FLAG”.

With `COCCN1C(=O)N(c2ncc(C#Cc3ccc(F)cc3)cn2)[C@@H]2CCC[C@@H]21` [Example 7], in data set [1], the solubility was determined as 43 µg/mL (≈ 113 µM). At human mGlu5a receptor, this compound came in with an EC50 of 26.8 nM. In addition, the GSH assay entry in data set [2] was “NO FLAG”.

On to `COCCN1C(=O)N(c2ncc(C#Cc3cc(F)ccc3F)cn2)[C@@H]2CCC[C@@H]21` [Example 8], for which the solubility in data set [1] worked out at 75 µg/mL (≈ 188 µM). Also, the EC50 at human mGlu5a receptor was found to be 15.7 nM. The GSH assay entry in data set [2] is reported as “NO FLAG”.

Regarding `COCCCN1C(=O)N(c2ncc(C#Cc3ccccc3)cn2)[C@@H]2CCC[C@@H]21` [Example 9, (−)-(3aR,6aS)-1-(3-Methoxy-propyl)-3-(5-phenylethynyl-pyrimidin-2-yl)-hexahydro-cyclopentaimidazol-2-one], in data set [1], the solubility came to 153 µg/mL (≈ 406 µM). Also, on human mGlu5a receptor, it took 30.9 nM to reach a half-maximal effect (EC50). For the same compound, the GSH assay entry in data set [2] is “NO FLAG”.

In data set [1], `COCCCN1C(=O)N(c2ncc(C#Cc3cccc(F)c3)cn2)[C@@H]2CCC[C@@H]21` [Example 10] gave a solubility of 115 µg/mL (≈ 292 µM). Moreover, it took 31.6 nM to reach a half-maximal effect on human mGlu5a receptor (EC50). Further, in data set [2], the GSH assay result is recorded as “NO FLAG”.

In data set [1], `COCCCN1C(=O)N(c2ncc(C#Cc3ccc(F)cc3)cn2)[C@@H]2CCC[C@@H]21` [Example 11] gave a solubility of 56 µg/mL (≈ 142 µM). This compound also displayed an EC50 at human mGlu5a receptor of 35 nM. The GSH assay result in data set [2] was “NO FLAG”.

`CN1C(=O)N(c2ccc(C#Cc3ccccc3)cn2)[C@@H]2CCC[C@@H]21` [Ref. 1 Ex. 106, reference compound] had an EC50 at human mGlu5a receptor of 8 nM. Also, in data set [3], the solubility at 24 h was 0.011 µg/mL (≈ 0.0347 µM).

With `CN1C(=O)N(c2ccc(C#Cc3ccccc3)nn2)[C@@H]2CCC[C@@H]21` [Ref. 1 Ex. 170, reference compound], the solubility in data set [1] was 2 µg/mL (≈ 6.28 µM). Besides, the midpoint of the response on human mGlu5a receptor, the EC50, lay at 8.1 nM. Moreover, the GSH assay entry in data set [2] is on record as “FLAG”.
